Consider five compounds from patent publication US20260176320A1, “MODULATORS OF G-PROTEIN COUPLED RECEPTORS” (priority 2018, published 2026).

Holding throughout (type): cell-based
In assay [1] the target is T1, GLP-1R (Homo sapiens, UniProt P43220). Put plainly: HitHunter cAMP assay (GLP-1R). Particulars: cAMP; for Emax: read-out: (Emax) GLP-1R; for EC50: read-out: EC50 GLP-1R/nM. Put shortly:
(§1)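 Suspension cells expressing each receptor (10,000 per well) in HBSS with 10 mM HEPES, 625 μM IBMX and 0.2% BSA were treated with a 22-point 2-fold agonist series in duplicate for 30 minutes at room temperature. cAMP was detected by antibody immunocompetition with luminescence read after overnight incubation.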
Background: Changes in cAMP serve as a functional read-out for many G protein-coupled receptors.

Assay [2] concerns the target T1, GLP-1R. As to the kind of experiment: PathHunter β-arrestin assay. Here is the method: The effects of the chemical entities described herein on β-arrestin signaling and associated downstream processes (e.g., those delineated above) can be assessed using conventional methods, e.g., PathHunter β-arrestin Assay for determining β-arresting coupling (see Examples section). […] It has been shown that b-arrestin coupling is a key strep in receptor internalization and subsequent de-sensitization and attenuation of signaling.
5,000 cells were seeded in appropriate cell culture media per well in a low volume 384-well tissue culture plate. The assay plate was incubated with cells overnight at 37° C. and 5% CO2. The media was removed, and 5 μL of appropriate cell culture media containing 0.2% BSA was added. Agonist serial dilutions in a separate 384 well dilution plate in a 22-point series of 2× dilutions of agonist in DMSO were performed as follows. 80 μL of the highest concentration of Agonist/DMSO was added to well No. 1. 40 μL was removed from well No. 1, and added to well No. 2, followed by gentle mixing. […] This process was repeated until well No. 22. Additional serial dilutions for additional agonists were set up in a similar manner. 100 nL of each 2× agonist serial dilution was added in duplicate to the designated agonist rows of the assay plate using the Labcyte ECHO. Assay plate was incubated for 90 minutes at 37° C. and 5% CO2. A stock of Working Detection Solution in a separate 15 ml polypropylene tube was prepared by mixing 19 parts of Cell Assay Buffer, 5 parts of Substrate Reagent 1, 1 part Substrate Reagent 2. […] Plates were spun down briefly. Assay plate was incubated for 3 hour at room temperature in the dark for the immunocompetition reaction to occur. Samples were read on Tecan i-control plate reader using luminescence mode with 100 ms integration time. Data analysis was performed using GraphPad Prism.

The target of assay [3] is T2, GIP-R (Homo sapiens, UniProt P48546).
T2 sequence (P48546 22-466): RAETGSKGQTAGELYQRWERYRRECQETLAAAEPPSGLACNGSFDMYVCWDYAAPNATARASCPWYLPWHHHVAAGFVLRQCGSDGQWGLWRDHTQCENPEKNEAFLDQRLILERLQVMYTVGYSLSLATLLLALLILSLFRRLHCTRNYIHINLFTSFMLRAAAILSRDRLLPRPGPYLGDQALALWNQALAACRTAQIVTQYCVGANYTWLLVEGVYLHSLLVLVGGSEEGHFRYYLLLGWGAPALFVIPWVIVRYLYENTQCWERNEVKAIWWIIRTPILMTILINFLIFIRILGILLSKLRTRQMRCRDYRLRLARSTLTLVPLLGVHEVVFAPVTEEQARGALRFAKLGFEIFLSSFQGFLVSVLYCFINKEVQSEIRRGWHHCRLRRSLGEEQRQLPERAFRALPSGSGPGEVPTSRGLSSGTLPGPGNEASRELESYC
As to the kind of experiment: HitHunter cAMP assay (GIP-R). The note with it: cAMP; for EC50: read-out: EC50 GIP-R/nM; for Emax: read-out: (Emax) GIP-R. The essentials: as §1

Where two headings read alike, the source gives them in different places. Square brackets hold non-standard residues; d marks the D form. Peptide text beside a SMILES is read from it. * marks the point of attachment. X1 = O=C(CSCC(=O)*)NCCN1C(=O)c2ccccc2C1=O; Aib = CC(C)(N)C(=O)O

T1 sequence (P43220 24-463): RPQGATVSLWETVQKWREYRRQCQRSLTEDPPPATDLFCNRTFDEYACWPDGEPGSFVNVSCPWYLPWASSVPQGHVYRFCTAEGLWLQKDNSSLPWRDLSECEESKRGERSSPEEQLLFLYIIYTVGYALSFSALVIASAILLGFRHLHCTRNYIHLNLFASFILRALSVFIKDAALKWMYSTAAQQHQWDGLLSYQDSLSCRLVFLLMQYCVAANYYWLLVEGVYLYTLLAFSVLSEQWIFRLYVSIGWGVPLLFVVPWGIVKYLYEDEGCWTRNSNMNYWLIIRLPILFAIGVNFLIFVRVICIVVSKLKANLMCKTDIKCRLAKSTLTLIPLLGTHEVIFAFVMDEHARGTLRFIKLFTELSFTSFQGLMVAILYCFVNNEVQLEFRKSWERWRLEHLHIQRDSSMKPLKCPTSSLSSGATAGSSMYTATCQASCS

A word on the Emax: it is the maximal effect, on the per cent scale that the assay sets. Turning to `CCCCCCCCCCCCCCCC(=O)N[C@@H](CCC(=O)NCCCC[C@H](NC(=O)[C@H](CO)NC(=O)[C@@H]1CCCN1C(=O)[C@@H]1CCCN1C(=O)[C@@H]1CCCN1C(=O)[C@H](C)NC(=O)CNC(=O)[C@H](CO)NC(=O)[C@H](CO)NC(=O)[C@@H]1CCCN1C(=O)CNC(=O)CNC(=O)[C@H](C)NC(=O)[C@H](CC(C)C)NC(=O)[C@H](CC(C)C)NC(=O)[C@H](Cc1c[nH]c2ccccc12)NC(=O)[C@H](CC(N)=O)NC(=O)[C@@H](NC(=O)[C@H](Cc1ccccc1)NC(=O)[C@H](CCC(=O)O)NC(=O)C(C)(C)NC(=O)[C@H](C)NC(=O)[C@H](C)NC(=O)[C@H](CCC(N)=O)NC(=O)[C@H](CCCCN)NC(=O)[C@H](CC(=O)O)NC(=O)[C@H](CC(C)C)NC(=O)[C@H](Cc1ccc(O)cc1)NC(=O)[C@@H](NC(=O)[C@H](CO)NC(=O)[C@H](Cc1ccc(O)cc1)NC(=O)[C@H](CC(=O)O)NC(=O)[C@H](CO)NC(=O)[C@@H](NC(=O)[C@H](Cc1ccccc1)NC(=O)[C@@H](NC(=O)CNC(=O)[C@H](CCC(=O)O)NC(=O)CC(C)(C)NC(=O)CCN1CCCCC1=O)[C@@H](C)O)[C@@H](C)O)[C@@H](C)CC)C(C)C)C(N)=O)C(=O)O` [Compound 3], the Emax in assay [1] (Table 3) and in assay [1] (Table 3A) was 96% in each case. Moreover, the EC50 in assay [1] (Table 3) is 0.1 to 1 nM; in assay [1] (Table 3A) it was 0.1 to 1 nM; in assay [2] (PathHunter β-arrestin assay, read-out: β-arrestin activity EC50), over 1000 nM.

On to `CC[C@H](C)[C@H](NC(=O)[C@H](CO)NC(=O)[C@H](Cc1ccc(O)cc1)NC(=O)[C@H](CC(=O)O)NC(=O)[C@H](CO)NC(=O)[C@@H](NC(=O)[C@H](Cc1ccccc1)NC(=O)[C@@H](NC(=O)CNC(=O)[C@H](CCC(=O)O)NC(=O)CSCC(=O)NCCN1C(=O)c2ccccc2C1=O)[C@@H](C)O)[C@@H](C)O)C(=O)N[C@@H](Cc1ccc(O)cc1)C(=O)N[C@@H](CC(C)C)C(=O)N[C@@H](CC(=O)O)C(=O)N[C@@H](CCCCN)C(=O)N[C@@H](CCC(N)=O)C(=O)N[C@@H](C)C(=O)N[C@@H](C)C(=O)NC(C)(C)C(=O)N[C@@H](CCC(=O)O)C(=O)N[C@@H](Cc1ccccc1)C(=O)N[C@H](C(=O)N[C@@H](CCC(=O)O)C(=O)N[C@@H](Cc1c[nH]c2ccccc12)C(=O)N[C@@H](CC(C)C)C(=O)N[C@@H](CC(C)C)C(=O)N[C@@H](C)C(=O)NCC(=O)NCC(=O)N1CCC[C@H]1C(=O)N[C@@H](CO)C(=O)N[C@@H](CO)C(=O)NCC(=O)N[C@@H](C)C(=O)N1CCC[C@H]1C(=O)N1CCC[C@H]1C(=O)N1CCC[C@H]1C(=O)N[C@@H](CO)C(=O)N[C@@H](CCCCN)C(N)=O)C(C)C` [compound 149] (X1-EGTFTSDYSIYLDKQAA[Aib]EFVEWLLAGGPSSGAPPPSK-NH2), for which, in assay [2], the EC50 was over 1000 nM.

Turning to `CC[C@H](C)[C@H](NC(=O)[C@H](CO)NC(=O)[C@H](Cc1ccc(O)cc1)NC(=O)[C@H](CC(=O)O)NC(=O)[C@H](CO)NC(=O)[C@@H](NC(=O)[C@H](Cc1ccccc1)NC(=O)[C@@H](NC(=O)CNC(=O)[C@H](CCC(=O)O)NC(=O)CS(=O)(=O)CC(=O)NCCN1C(=O)CSC1=O)[C@@H](C)O)[C@@H](C)O)C(=O)N[C@@H](Cc1ccc(O)cc1)C(=O)N[C@@H](CC(C)C)C(=O)N[C@@H](CC(=O)O)C(=O)N[C@@H](CCCCN)C(=O)N[C@@H](CCC(N)=O)C(=O)N[C@@H](C)C(=O)N[C@@H](C)C(=O)NC(C)(C)C(=O)N[C@@H](CCC(=O)O)C(=O)N[C@@H](Cc1ccccc1)C(=O)N[C@H](C(=O)N[C@@H](CC(N)=O)C(=O)N[C@@H](Cc1c[nH]c2ccccc12)C(=O)N[C@@H](CC(C)C)C(=O)N[C@@H](CC(C)C)C(=O)N[C@@H](C)C(=O)NCC(=O)NCC(=O)N1CCC[C@H]1C(=O)N[C@@H](CO)C(=O)N[C@@H](CO)C(=O)NCC(=O)N[C@@H](C)C(=O)N1CCC[C@H]1C(=O)N1CCC[C@H]1C(=O)N1CCC[C@H]1C(=O)N[C@@H](CO)C(=O)N[C@@H](CCCCN)C(N)=O)C(C)C` [Compound 168], the Emax in assay [1] (Table 3) and in assay [1] (Table 3A) was 92% throughout. The EC50 in assay [1] (Table 3) is 1 to 10 nM; in assay [1] (Table 3A), 1 to 10 nM; in assay [3] (Table 3) it was over 1000 nM; in assay [3] (Table 3A), over 1000 nM. In addition, the Emax at 1 µM in assay [3] (read-out: (Emax) GIP-R at 1 μM, Table 3, at 1 μM) fell in the range of 6 to 14%.

Regarding `CCCCCCCCCCCCCCCC(=O)N[C@@H](CCC(=O)NCCCC[C@H](NC(=O)[C@H](CO)NC(=O)[C@@H]1CCCN1C(=O)[C@@H]1CCCN1C(=O)[C@@H]1CCCN1C(=O)[C@H](C)NC(=O)CNC(=O)[C@H](CO)NC(=O)[C@H](CO)NC(=O)[C@@H]1CCCN1C(=O)CNC(=O)CNC(=O)[C@H](C)NC(=O)[C@H](CC(C)C)NC(=O)[C@H](CC(C)C)NC(=O)[C@H](Cc1c[nH]c2ccccc12)NC(=O)[C@H](CC(N)=O)NC(=O)[C@@H](NC(=O)[C@H](Cc1ccccc1)NC(=O)[C@H](CCC(=O)O)NC(=O)C(C)(C)NC(=O)[C@H](C)NC(=O)[C@H](C)NC(=O)[C@H](CCC(N)=O)NC(=O)[C@H](CCCCN)NC(=O)[C@H](CC(=O)O)NC(=O)[C@H](CC(C)C)NC(=O)[C@H](Cc1ccc(O)cc1)NC(=O)[C@@H](NC(=O)[C@H](CO)NC(=O)[C@H](Cc1ccc(O)cc1)NC(=O)[C@H](CC(=O)O)NC(=O)[C@H](CO)NC(=O)[C@@H](NC(=O)[C@H](Cc1ccccc1)NC(=O)[C@@H](NC(=O)CNC(=O)[C@H](CCC(=O)O)NC(=O)CCNC(=O)CCN1CCCCCC1=O)[C@@H](C)O)[C@@H](C)O)[C@@H](C)CC)C(C)C)C(N)=O)C(=O)O` [Compound 267], the Emax in assay [1] (Table 3A) worked out at 100%; in assay [3] (Table 3A), 40%. In addition, the EC50 in assay [3] (Table 3A) was 10 to 100 nM.

Consider `CCCCCCCCCCCCCCCC(=O)N[C@@H](CCC(=O)NCCCC[C@H](NC(=O)[C@H](CO)NC(=O)[C@@H]1CCCN1C(=O)[C@@H]1CCCN1C(=O)[C@@H]1CCCN1C(=O)[C@H](C)NC(=O)CNC(=O)[C@H](CO)NC(=O)[C@H](CO)NC(=O)[C@@H]1CCCN1C(=O)CNC(=O)CNC(=O)[C@H](C)NC(=O)[C@H](CC(C)C)NC(=O)[C@H](CC(C)C)NC(=O)[C@H](Cc1c[nH]c2ccccc12)NC(=O)[C@H](CC(N)=O)NC(=O)[C@@H](NC(=O)[C@H](Cc1ccccc1)NC(=O)[C@H](CCC(=O)O)NC(=O)C(C)(C)NC(=O)[C@H](C)NC(=O)[C@H](C)NC(=O)[C@H](CCC(N)=O)NC(=O)[C@H](CCCCN)NC(=O)[C@H](CC(=O)O)NC(=O)[C@H](CC(C)C)NC(=O)[C@H](Cc1ccc(O)cc1)NC(=O)[C@@H](NC(=O)[C@H](CO)NC(=O)[C@H](Cc1ccc(O)cc1)NC(=O)[C@H](CC(=O)O)NC(=O)[C@H](CO)NC(=O)[C@@H](NC(=O)[C@H](Cc1ccccc1)NC(=O)[C@@H](NC(=O)CNC(=O)[C@H](CCC(=O)O)NC(=O)CCCNC(=O)CCN1C(=O)CSC1=O)[C@@H](C)O)[C@@H](C)O)[C@@H](C)CC)C(C)C)C(N)=O)C(=O)O` [Compound 51], for which the Emax is 98% in assay [1] (Table 3), 98% in assay [1] (Table 3A), 65% in assay [3] (Table 3) and 65% in assay [3] (Table 3A). In addition, the EC50 in assay [1] (Table 3) is 0.1 to 1 nM; in assay [1] (Table 3A), 0.1 to 1 nM; in assay [3] (Table 3) it was 1 to 10 nM; in assay [3] (Table 3A), 1 to 10 nM.
